Here are results for eight compounds from PubChem BioAssay (NCI).

Among the test systems are 786-0 renal; CCRF-CEM leukemia; KM12 colon; LOX IMVI melanoma; OVCAR-4 ovarian; OVCAR-8 ovarian; SF-295 CNS; SK-MEL-28 melanoma; UO-31 renal.
What all share (assay): inhibition of tumour cell growth, NCI panel, 48 h

SMILES strings stand for the structures.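 Cultured in 96-well plates, cells were exposed to test compound for 48 hours across five concentrations. Abbreviation: GI50, concentration required for 50% inhibition of growth. Definition used: TGI = concentration required for complete inhibition of growth.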

For `CC(=O)N(C)OC(=O)CC(=O)c1ccccc1`, the TGI in the experiment on 786-0 renal, with CCRF-CEM leukemia, in the experiment on KM12 colon, with LOX IMVI melanoma, in the experiment with OVCAR-4 ovarian and in the experiment on OVCAR-8 ovarian was above 100 µM in each case. The TGI in the experiment with SF-295 CNS, with SK-MEL-28 melanoma and with UO-31 renal was above 100 µM throughout.

As to `Nc1ccccc1C#CC#Cc1ccccc1N`, the GI50 in the experiment with 786-0 renal was 13.2 µM; in the experiment with KM12 colon, 8.46 µM; in the experiment on LOX IMVI melanoma it was 6.78 µM; in the experiment on OVCAR-4 ovarian, 23.7 µM; in the experiment with OVCAR-8 ovarian it was 28.7 µM; with SF-295 CNS, 2.76 µM. In addition, the GI50 in the experiment on SK-MEL-28 melanoma was 48 µM; in the experiment with UO-31 renal, 8 µM. Further, the TGI in the experiment on 786-0 renal was 27 µM; in the experiment with KM12 colon, 36.2 µM; in the experiment with LOX IMVI melanoma, 19.4 µM; in the experiment on OVCAR-4 ovarian it was above 100 µM; in the experiment on OVCAR-8 ovarian, above 100 µM; with SF-295 CNS it was above 100 µM. In addition, the TGI in the experiment with SK-MEL-28 melanoma and in the experiment on UO-31 renal was above 100 µM throughout.

Consider `Cc1ccc(Nc2nc(NCCO)c3ccccc3n2)cc1C`, for which the GI50 with 786-0 renal was 6.94 µM; in the experiment with CCRF-CEM leukemia it was 4.57 µM; with KM12 colon, 8.06 µM; in the experiment on LOX IMVI melanoma, 3.55 µM; in the experiment on OVCAR-4 ovarian, 3.14 µM; in the experiment on OVCAR-8 ovarian it was 5.44 µM. Further, the GI50 is 4.37 µM with SF-295 CNS, 6.47 µM in the experiment on SK-MEL-28 melanoma and 5.01 µM with UO-31 renal. Further, the TGI came out at 20.1 µM with 786-0 renal; 18.6 µM in the experiment on CCRF-CEM leukemia; 20.5 µM in the experiment with KM12 colon; 12.4 µM with LOX IMVI melanoma; 15.6 µM with OVCAR-4 ovarian; 25.9 µM in the experiment on OVCAR-8 ovarian. Further, the values for the TGI with SF-295 CNS, with SK-MEL-28 melanoma and in the experiment with UO-31 renal were 17.5 µM, 20.1 µM and 19 µM, respectively.

On to `O=C(Nc1ccc(-c2nc3cc4ccccc4cc3[nH]2)cc1)c1cccc(Br)c1`, for which the GI50 in the experiment with 786-0 renal was 5.48 µM; in the experiment on CCRF-CEM leukemia, 9.55 µM; in the experiment on KM12 colon, 7.24 µM; in the experiment on LOX IMVI melanoma, 6.85 µM; with OVCAR-4 ovarian it was 2.88 µM; in the experiment with OVCAR-8 ovarian, 3.43 µM. Besides, the GI50 in the experiment with SF-295 CNS was 20.7 µM; with SK-MEL-28 melanoma it was 4.33 µM; in the experiment with UO-31 renal, 17.6 µM. The TGI with 786-0 renal is 18 µM; in the experiment with CCRF-CEM leukemia it was 80.4 µM; in the experiment with KM12 colon it was 32.4 µM; in the experiment with LOX IMVI melanoma it was 20.1 µM; with OVCAR-4 ovarian, 7.97 µM; in the experiment with OVCAR-8 ovarian, 18.9 µM. The results for the TGI in the experiment with SF-295 CNS, in the experiment on SK-MEL-28 melanoma and with UO-31 renal were 48.1 µM, 16.8 µM and 36.1 µM, respectively.

In the case of `CC(C)C[C@H](NC(=O)[C@H](Cc1ccccc1)n1ccc(N2CCCCC2)cc1=O)B(O)O`, the GI50 was 0.825 µM with 786-0 renal; 0.429 µM with CCRF-CEM leukemia; 1.33 µM in the experiment on KM12 colon; 2.06 µM in the experiment on OVCAR-4 ovarian; 3.64 µM in the experiment on OVCAR-8 ovarian; 0.585 µM in the experiment on SF-295 CNS. Besides, the GI50 with SK-MEL-28 melanoma was 0.521 µM; with UO-31 renal, 0.981 µM. Also, the TGI with 786-0 renal is above 100 µM; with CCRF-CEM leukemia, above 100 µM; with KM12 colon, 4.38 µM; in the experiment on OVCAR-4 ovarian it was above 100 µM; with OVCAR-8 ovarian, above 100 µM; in the experiment on SF-295 CNS, 4.51 µM. Besides, the TGI stood at 29.7 µM in the experiment with SK-MEL-28 melanoma and 15.4 µM in the experiment on UO-31 renal.

With `CCCc1c2c([nH]c(=O)c1C)C(=O)c1[nH]c(=O)c(C)c(CCC)c1C2=O`, the TGI is above 100 µM in the experiment on 786-0 renal; 73.2 µM in the experiment with CCRF-CEM leukemia; 55.3 µM with LOX IMVI melanoma; 54.6 µM in the experiment with OVCAR-4 ovarian; 17.8 µM in the experiment on OVCAR-8 ovarian; above 100 µM with SF-295 CNS. Besides, the TGI in the experiment with SK-MEL-28 melanoma and with UO-31 renal was above 100 µM in each case.

In the case of `O=[N+]([O-])c1cnc(Sc2ccncn2)c([N+](=O)[O-])c1`, the GI50 in the experiment with 786-0 renal was 12.2 µM; in the experiment with CCRF-CEM leukemia, 1.21 µM; with KM12 colon it was 20.9 µM; in the experiment on LOX IMVI melanoma it was 3.1 µM; in the experiment on OVCAR-8 ovarian, 11.7 µM; with SF-295 CNS, above 100 µM. The GI50 with SK-MEL-28 melanoma was 15.6 µM; with UO-31 renal, 1.55 µM. Moreover, the TGI is 25 µM with 786-0 renal; 4.47 µM in the experiment on CCRF-CEM leukemia; 55.1 µM in the experiment with KM12 colon; 10.6 µM in the experiment on LOX IMVI melanoma; 25 µM in the experiment with OVCAR-8 ovarian; above 100 µM with SF-295 CNS. The TGI in the experiment with SK-MEL-28 melanoma came out at 29.7 µM; in the experiment on UO-31 renal it was 2.98 µM.

As to `C/C(=N\NC(=S)N1CCCCCC1)c1nccnc1C`, the TGI with 786-0 renal is above 100 µM; in the experiment on KM12 colon, above 100 µM; in the experiment on LOX IMVI melanoma, above 100 µM; in the experiment on OVCAR-4 ovarian, above 100 µM; in the experiment with OVCAR-8 ovarian, above 100 µM; in the experiment on SF-295 CNS it was 16.6 µM. For the same compound, the TGI with SK-MEL-28 melanoma is above 100 µM.
